A short description of this data set: Thermo Scientific Acclaim RSLC 120 C18, 100 × 2.1 mm, 2.2 µm, 30 °C; A: 90% water + 10% methanol + 0.01% formic acid + 5 mM ammonium formate; B: methanol + 0.01% formic acid + 5 mM ammonium formate; gradient (min/%B) 0.1/1 3/39 14/99.9 16/99.9. The following applies: stereoisomer not certain.
In the case of `c1ccc(Nc2ccccc2)cc1`, the LC retention time came out at 10.1 min.
In the case of `CCCCCn1cc(C(=O)c2cccc3ccccc23)cc1-c1ccccc1C` it was 13.4 min.
To `CC1=C(C(=O)Nc2ccccc2)S(=O)(=O)CCO1` belongs 5.59 min; to `CC(C)N(CCC(C(N)=O)(c1ccccc1)c1ccccn1)C(C)C` (stereo unspecified), 4.74 min; to `CN(C)CCOC(=O)C(c1ccccc1)C1(O)CCCC1` (stereo unspecified), 6.16 min.
In the case of `c1ccc2[nH]c(-c3cscn3)nc2c1` it was 6.15 min; in that of `CCNc1nc(NC(C)C)nc(SC)n1`, 9.16 min; in that of `CCCC(C)(COC(N)=O)COC(=O)NC(C)C` (stereo unspecified), 7.99 min.
As for `CN1CCOC(c2ccccc2)c2ccccc2C1` (stereo unspecified), the LC retention time worked out at 5.67 min.
To `NC12CC3CC(CC(C3)C1)C2` belongs 4.86 min; to `CCCCOC(=O)N(C)SN(C)C(=O)Oc1cccc2c1OC(C)(C)C2`, 12.1 min; to `CCCc1nn(C)c2c(=O)[nH]c(-c3cc(S(=O)(=O)N4CCN(C5CCCC5)CC4)ccc3OCC)nc12`, 9.01 min.
In the case of `CCCN(CCC)C(=O)SCC` it was 10.7 min.
In the case of `CCC1CN2CCC3(O)C(=Nc4cccc(OC)c43)C2CC1C(=COC)C(=O)OC` (stereo unspecified) it was 5.95 min; in that of `CCCCCn1cc(C(=O)Cc2cccc(OC)c2)c2ccccc21`, 11.6 min; in that of `CC(C)=CC1C(C(=O)OCc2coc(Cc3ccccc3)c2)C1(C)C` (stereo unspecified), 13.6 min.
Take `CC=CC(=O)Oc1c(C(C)CCCCCC)cc([N+](=O)[O-])cc1[N+](=O)[O-]` (stereo unspecified): the LC retention time was found to be 13.1 min.
In the case of `C#CCOS(=O)OC1CCCCC1Oc1ccc(C(C)(C)C)cc1` (stereo unspecified) it was 12.8 min; in that of `CNC(=O)N(C)c1nnc(C(C)(C)C)s1`, 7.25 min; in that of `Cc1nnc(-c2ccccc2)c(=O)n1N`, 5.24 min.
For the molecule `CCOP(=S)(Oc1cnc(C(C)(C)C)nc1)OC(C)C` (stereo unspecified), the LC retention time was 12.3 min.
`CCCCCc1cc(O)c2c(c1)OC(C)(C)C1CCC(CO)=CC21` (stereo unspecified): the LC retention time was found to be 12.5 min.
Consider `COCCCNc1nc(NC(C)C)nc(SC)n1`, for which the LC retention time is 9.14 min.
In the case of `Cn1cc[nH]c1=S` it was 2.61 min.
To `Cc1cc(C)nc(NC(=O)NS(=O)(=O)c2ccccc2C(=O)OC2COC2)n1` belongs 6.52 min.
`CC(NC(=O)C(N)CC(=O)O)C(=O)NC1C(C)(C)SC1(C)C` (stereo unspecified): the LC retention time came out at 6.09 min.
In the case of `Cc1ncc([N+](=O)[O-])n1C` it was 4.27 min.
`COP(=S)(OC)Oc1ccc(C#N)cc1`: the LC retention time came to 8.27 min.
In the case of `O=c1[nH]cnc2[nH]ncc12` it was 2.19 min.
To `COc1ccc2c(c1)[nH]c1c(C)nccc12` belongs 5.34 min.
Take `CCC1=C(C)CN(C(=O)NCCc2ccc(S(=O)(=O)NC(=O)NC3CCC(C)CC3)cc2)C1=O` (stereo unspecified): the LC retention time amounted to 10.7 min.
In the case of `NCCc1ccccc1` it was 3.57 min.
In the case of `CCC(N)Cc1ccc2c(c1)OCO2` (stereo unspecified) it was 4.73 min; in that of `Cc1ccc(C(=O)c2ccc(CC(=O)O)n2C)cc1`, 7.89 min.
In the case of `CCCCCCCC(C)(C)c1ccc(C2CCCC(O)C2)c(O)c1` (stereo unspecified) it was 13.5 min.
Take `CCCc1nn(C)c2c(=O)[nH]c(-c3cc(S(=O)(=O)N4CC(C)NC(C)C4)ccc3OCC)nc12` (stereo unspecified): the LC retention time was found to be 7.6 min.
In the case of `COc1cccc(N(C)C(=S)Oc2cccc(C(C)(C)C)c2)n1` it was 12.5 min; in that of `CCCCCCCCOC(=O)c1ccccc1C(=O)OCCCCCCCC`, 15.3 min; in that of `CCN(CC)CCOCCOC(=O)C(CC)(CC)c1ccccc1`, 8.04 min.
`COP(=S)(OC)SCN1C(=O)c2ccccc2C1=O`: the LC retention time turned out to be 8.94 min.
In the case of `CNC(=O)ON=C(SC)C(=O)N(C)C`, the LC retention time is 3.77 min.
Regarding `CCCCC1C(=O)N(c2ccccc2)N(c2ccccc2)C1=O`, the LC retention time stood at 8.98 min.
In the case of `COC(=O)C(NC(=O)c1nn(CC2CCCCC2)c2ccccc12)C(C)C` (stereo unspecified) it was 12.4 min.
In the case of `CNC(C)C(=O)c1ccc(C)cc1` (stereo unspecified) it was 4.49 min.
As to `CN1CCN(CC(=O)N2c3ccccc3C(=O)Nc3cccnc32)CC1`, the LC retention time turned out to be 4.11 min.
In the case of `CN(C(=O)CN(CCO)CC(=O)N(C)C(C)(C)Cc1ccccc1)C(C)(C)Cc1ccccc1` it was 10.9 min; in that of `C1COC(NC(C2CC2)C2CC2)=N1`, 4.4 min.
To `Cc1ccccc1C(OCCN(C)C)c1ccccc1` (stereo unspecified) belongs 7.44 min; to `CCCCCn1c2ccccc2c2cc(C(=O)c3cccc4ccccc34)ccc21`, 14.2 min.
To `CCC1OC(=O)C(C)C(OC2CC(C)(OC)C(O)C(C)O2)C(C)C(OC2OC(C)CC(N(C)C)C2O)C(C)(O)CC(C)C(=NOCOCCOC)C(C)C(O)C1(C)O` (stereo unspecified) belongs 9.23 min; to `CC12C=CC(=O)C=C1CCC1C2C(=O)CC2(C)C1CCC2(O)C(=O)CO` (stereo unspecified), 7.85 min.
`CCOP(=O)(OCC)Oc1ccc([N+](=O)[O-])cc1`: the LC retention time is 8.01 min.
To `COC1C=COC2(C)Oc3c(C)c(O)c4c(O)c(c5c(nc6cc(C)ccn65)c4c3C2=O)NC(=O)C(C)=CC=CC(C)C(O)C(C)C(O)C(C)C(OC(C)=O)C1C` (stereo unspecified) belongs 10.1 min; to `CC12CCC3c4ccc(O)c(O)c4CCC3C1CCC2=O` (stereo unspecified), 8.69 min; to `O=C(c1cccc2ccccc12)c1cn(CCN2CCOCC2)c2cccc(O)c12`, 10.1 min.
To `CNC(=O)CSP(=O)(OC)OC` belongs 3.35 min.
To `CCCC(C(=O)OCCN(CC)CC)(c1ccccc1)c1ccccc1` belongs 9.41 min; to `CN(C)C(=O)C(c1ccccc1)c1ccccc1`, 8.57 min.
Consider `COC(=O)c1ccccc1S(=O)(=O)NC(=O)Nc1nc(C)nc(OC)n1`, for which the LC retention time was found to be 6.31 min.
For `CCCOc1ccc(S(=O)(=O)N2CCN(CC)CC2)cc1-c1nc(=S)c2c([nH]1)c(CCC)nn2C`, the LC retention time turned out to be 10.5 min.
In the case of `CC(C1=C(CCN(C)C)Cc2ccccc21)c1ccccn1` (stereo unspecified) it was 6.86 min.
In the case of `Nc1ccn(C2OC(CO)C(O)C2O)c(=O)n1` (stereo unspecified) it was 1.39 min; in that of `CC(C)(C(=O)c1cccnc1)c1cccnc1`, 6.21 min.
In the case of `COc1cc2[nH]c(C)c(CCN3CCN(c4ccccc4)CC3)c2cc1OC` it was 5.76 min; in that of `C1=Cc2ccccc2Nc2ccccc21`, 10.1 min.
Take `CCCc1nn(C)c2c(=O)[nH]c(-c3cc(C(C)=O)ccc3OCC)nc12`: the LC retention time was determined as 9.81 min.
To `CCCCCn1cc(C(=O)c2cccc3ccccc23)c2cc(O)ccc21` belongs 11.3 min; to `Nc1ncnc2c1ncn2C1OC(CO)C(O)C1O` (stereo unspecified), 3.14 min.
`Cc1ncc([N+](=O)[O-])n1CCO`: the LC retention time came to 3.58 min.
In the case of `CC1(C)CC1C(=O)NC(=CCCCCSCC(N)C(=O)O)C(=O)O` (stereo unspecified) it was 4.88 min.
`CCOC(=O)NCCOc1ccc(Oc2ccccc2)cc1`: the LC retention time is 10.6 min.
To `CN1CCCCC1Cn1cc(C(=O)C2C(C)(C)C2(C)C)c2ccccc21` (stereo unspecified) belongs 8.81 min; to `CN1CCC23c4c5ccc(OCCN6CCOCC6)c4OC2C(O)C=CC3C1C5` (stereo unspecified), 2.73 min.
In the case of `CCC(C(=O)c1ccc2c(c1)OCO2)N(C)C` (stereo unspecified) it was 4.38 min; in that of `CCCCc1ncc(C=C(Cc2cccs2)C(=O)O)n1Cc1ccc(C(=O)O)cc1`, 7.49 min; in that of `Cn1c(=O)c2c(ncn2C)n(C)c1=O`, 4.23 min.
In the case of `OC(CCN1CCCCC1)(c1ccccc1)C1CC2C=CC1C2` (stereo unspecified), the LC retention time turned out to be 7.63 min.
Turning to `CCOC(=O)C1CC(=O)C(=C(O)C2CC2)C(=O)C1` (stereo unspecified), the LC retention time was determined as 8.45 min.
In the case of `c1ccc(CN2CCNCC2)cc1` it was 4.23 min; in that of `CCCCCn1nc(C(=O)NC(C(N)=O)C(C)C)c2ccccc21` (stereo unspecified), 10.5 min.
In the case of `CC12CCC(=O)C=C1CCC1C2CCC2(C)C(OC(=O)c3ccccc3)CCC12` (stereo unspecified) it was 13.8 min.
To `COCC(C)N(C(=O)CS(=O)(=O)O)c1c(C)csc1C` (stereo unspecified) belongs 6.28 min; to `CCOc1nc2cccc(C(=O)O)c2n1Cc1ccc(-c2ccccc2-c2nn[nH]n2)cc1`, 7.93 min; to `NCC1(CC(=O)O)CCCCC1`, 3.78 min.
As for `CC1(C)OCC2OC3(C(=O)O)OC(C)(C)OC3C2O1` (stereo unspecified), the LC retention time came to 4.76 min.
In the case of `CCCCC(CC)COC(=O)c1ccccc1C(=O)OCC(CC)CCCC` (stereo unspecified) it was 15 min; in that of `O=C(O)c1ccccc1C(=O)Nc1cccc2ccccc12`, 6.75 min; in that of `COP(=O)(OC)Oc1ccc([N+](=O)[O-])cc1`, 6.36 min.
To `COc1cc(CC(C)N)c(OC)cc1C` (stereo unspecified) belongs 5.83 min; to `CCN(CC)C(=O)C(C)Oc1cccc2ccccc12` (stereo unspecified), 10.2 min; to `CN(C)CCCn1c2c(c3ccccc31)CCCCCC2`, 9.26 min.
For `c1ccc2c(c1)CCCC2C1=NCCN1` (stereo unspecified), the LC retention time was 4.47 min.
To `CC12CCC(=O)C=C1CCC1C2C(O)CC2(C)C1CCC2(O)C(=O)CO` (stereo unspecified) belongs 7.84 min.
Regarding `CCNc1nc(NC(C)C)nc(OC)n1`, the LC retention time came out at 7.81 min.
To `Cc1ccsc1C(=CCCN1CCCC(C(=O)O)C1)c1sccc1C` (stereo unspecified) belongs 8.43 min; to `CCOP(=S)(OCC)SCS(=O)C(C)(C)C` (stereo unspecified), 9 min.

Values taken from the RepoRT retention time repository (doi:10.1016/j.jhazmat.2019.121712).
